Source: patent US8686044B2, “Amide derivative, pest control agent containing the amide derivative, and use of the amide derivative” (Mitsui Chemicals Agro, Inc., priority 2008, dated 2014)
Where two headings read alike, the source gives them in different places.

How the values were obtained:
Assay type in all cases: in vivo
[1] = tested on: Musca domestica; experiment: Pesticidal test against Musca domestica (petri dish dry film); settings: 24 h, concentration 100 ppm, female adults, examined after 1 day, 25° C., read-out: pesticidal rate
Method: Pesticidal Test against Musca domestica
1 ml of an acetone solution in which a test compound had been prepared at a predetermined concentration was added dropwise to a petri dish having a diameter of 9 cm, and air-dried, and then the female adults of Musca domestica were released and the petri dish was capped. They were left to stand in a thermostatic chamber at 25° C., and the numbers of the living pests and the dead pests were examined after 1 day. The test was carried out with five larvae per group in two replicates.

[2] = tested on: Plutella xylostella; experiment: Pesticidal test against Plutella xylostella (cabbage leaf dip); settings: foliar, 144 h, 2-stage larvae, examined after 6 days, 25° C., read-out: pesticidal rate; for pest or weed control at 1 ppm: concentration 1 ppm; for pest or weed control at 10 ppm: concentration 10 ppm
Summary of the method: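 Second-stage larvae (5 per group, two replicates) were released onto air-dried cabbage leaf discs that had been immersed for 30 seconds in compound solution at a set concentration. Mortality was scored after 6 days at 25° C.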

[3] = tested on: Spodoptera litura; experiment: Pesticidal test against Spodoptera litura (cabbage leaf dip); settings: foliar, 144 h, 2-stage larvae, examined after 6 days, 25° C., read-out: pesticidal rate; for pest or weed control at 1 ppm: concentration 1 ppm; for pest or weed control at 10 ppm: concentration 10 ppm
Summary of the method: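 Cabbage leaf pieces dipped 30 seconds in compound solution at a predetermined concentration and air-dried, then offered to second-stage larvae, five per group in two replicates. Held at 25° C. Living and dead larvae counted after 6 days.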

[4] = tested on: Laodelphax striatellus; experiment: Pesticidal test against Laodelphax striatellus (rice seedling spray); settings: 144 h, read-out: pesticidal rate
Summary of the method: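 Rice seedlings sprayed with 2.5 ml acetone solution of compound at a predetermined concentration, air-dried, then infested with third-stage Laodelphax striatellus larvae in capped water-containing tubes at 25 °C. Living and dead insects counted after 6 days; ten larvae per group, two replicates.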

[5] = tested on: Helicoverpa armigera; experiment: Pesticidal test against Helicoverpa armigera (cabbage leaf disk dip); settings: foliar, 72 h, concentration 1 ppm, 2-stage larvae, examined after 3 days, 25° C., read-out: pesticidal rate
Method: Pesticidal Test against Helicoverpa armigera A cabbage leaf disk was immersed for 30 seconds in a chemical solution in which a test compound had been prepared at a predetermined concentration, and air-dried. The leaf disk was put into a 6-hole plastic cup having a filter paper laid on the bottom thereof, and 2-stage larvae of Helicoverpa armigera were released with one insect being released per hole. They were left to stand in a thermostatic chamber at 25° C., and the numbers of the living pests and the dead pests were examined after 3 days. The test was carried out with five larvae per group in two replicates. Further, the above compound (A) was used as a comparative compound.

[6] = tested on: Adoxophyes honmai; experiment: Pesticidal test against Adoxophyes honmai (artificial feed dip); settings: 144 h, concentration 1 ppm, 2-stage larvae, examined after 6 days, 25° C., read-out: pesticidal rate
Method: Pesticidal Test against Adoxophyes honmai A thinly sliced artificial feed was immersed for 30 seconds in a chemical solution in which a test compound had been prepared at a predetermined concentration, and air-dried, and then put into a 7 cm polyethylene cup having a filter paper laid on the bottom thereof, and 2-stage larvae of Adoxophyes honmai were released. They were left to stand in a thermostatic chamber at 25° C., and the numbers of the living pests and the dead pests were examined after 6 days. The test was carried out with five larvae per group in two replicates. Further, the above compound (A) was used as a comparative compound.

[7] = concentration 100 ppm, 3-stage larvae, examined after 6 days, 25° C.

O=C(Nc1cccc(C(=O)Nc2c(I)cc(C(F)(C(F)(F)F)C(F)(F)C(F)(F)F)cc2I)c1F)c1cccnc1Cl (stereo not shown) [6-1374]
≥ 70%: pest or weed control at 100 ppm [1] | pest or weed control at 1 ppm [2] | pest or weed control at 1 ppm [3] | pest or weed control at 100 ppm [4, 7]

CN(C(=O)OCC(Cl)(Cl)Cl)c1cccc(C(=O)Nc2c(I)cc(C(F)(C(F)(F)F)C(F)(F)F)cc2C(F)(F)F)c1F [12-835]
≥ 70%: pest or weed control at 100 ppm [1] | pest or weed control at 1 ppm [2] | pest or weed control at 1 ppm [3] | pest or weed control at 100 ppm [4]

CN(C(=O)c1c(F)cccc1F)c1cccc(C(=O)Nc2c(Br)cc(C(F)(C(F)(F)F)C(F)(F)C(F)(F)F)cc2C(F)(F)F)c1 (stereo not shown) [7-368]
≥ 70%: pest or weed control at 100 ppm [1] | pest or weed control at 1 ppm [2] | pest or weed control at 1 ppm [3] | pest or weed control at 100 ppm [4, 7]

O=C(Nc1c(I)cc(C(F)(C(F)(F)F)C(F)(F)C(F)(F)F)cc1I)c1cccc(NC(=O)c2c(F)cccc2F)c1F (stereo not shown) [6-1360]
≥ 70%: pest or weed control at 100 ppm [1] | pest or weed control at 1 ppm [2] | pest or weed control at 1 ppm [3] | pest or weed control at 100 ppm [4, 7]

O=C(Nc1c(I)cc(C(F)(C(F)(F)F)C(F)(F)F)cc1C(F)(F)F)c1cccc(NC(=O)c2ccc(F)cc2Cl)c1 [6-449]
≥ 70%: pest or weed control at 1 ppm [2] | pest or weed control at 1 ppm [5] | pest or weed control at 1 ppm [3] | pest or weed control at 1 ppm [6]

CN(C(=O)c1cccc(F)c1)c1cccc(C(=O)Nc2c(I)cc(C(F)(C(F)(F)F)C(F)(F)C(F)(F)F)cc2I)c1F (stereo not shown) [7-1340]
≥ 70%: pest or weed control at 100 ppm [1] | pest or weed control at 1 ppm [2] | pest or weed control at 1 ppm [3] | pest or weed control at 100 ppm [4, 7]

O=C(Nc1cccc(C(=O)Nc2c(I)cc(C(F)(C(F)(F)F)C(F)(F)F)cc2C(F)(F)F)c1F)c1ccccc1Cl [6-1734]
≥ 70%: pest or weed control at 100 ppm [1] | pest or weed control at 1 ppm [2] | pest or weed control at 1 ppm [3] | pest or weed control at 100 ppm [4, 7]

CN(C(=O)c1ccccc1)c1cccc(C(=O)Nc2c(Br)cc(C(F)(C(F)(F)F)C(F)(F)C(F)(F)F)cc2C(F)(F)F)c1 (stereo not shown) [7-346]
≥ 70%: pest or weed control at 100 ppm [1] | pest or weed control at 1 ppm [2] | pest or weed control at 1 ppm [3] | pest or weed control at 100 ppm [4, 7]

O=C(Nc1cccc(C(=O)Nc2c(I)cc(C(F)(C(F)(F)F)C(F)(F)C(F)(F)F)cc2C(F)(F)F)c1F)c1cccc(F)c1 (stereo not shown) [6-1810]
≥ 70%: pest or weed control at 100 ppm [1] | pest or weed control at 1 ppm [2] | pest or weed control at 1 ppm [3] | pest or weed control at 100 ppm [4, 7]

CN(C(=O)OCC(Cl)(Cl)Cl)c1cccc(C(=O)Nc2c(I)cc(C(F)(C(F)(F)F)C(F)(F)C(F)(F)F)cc2C(F)(F)F)c1F (stereo not shown) [12-864, 2,2,2-trichloroethyl 2-fluoro-3-(2-iodo-4-(perfluorobutan-2-yl)-6-(trifluoromethyl)phenylcarbamoyl)phenyl(methyl)carbamate]
≥ 70%: pest or weed control at 100 ppm [1] | pest or weed control at 1 ppm [2] | pest or weed control at 1 ppm [3] | pest or weed control at 100 ppm [4]

CN(C(=O)c1ccccc1)c1cccc(C(=O)N(C)c2c(Br)cc(C(F)(C(F)(F)F)C(F)(F)F)cc2C(F)(F)F)c1F [9-2164, N-(2-bromo-4-(perfluoropropan-2-yl)-6-(trifluoromethyl)phenyl)-2-fluoro-N-methyl-3-(N-methylbenzamide)benzamide]
≥ 70%: pest or weed control at 100 ppm [1] | pest or weed control at 1 ppm [2] | pest or weed control at 1 ppm [3] | pest or weed control at 100 ppm [4, 7]

N#Cc1ccc(C(=O)Nc2cccc(C(=O)Nc3c(I)cc(C(F)(C(F)(F)F)C(F)(F)F)cc3I)c2F)cc1 [6-1281]
≥ 70%: pest or weed control at 100 ppm [1] | pest or weed control at 1 ppm [2] | pest or weed control at 1 ppm [5] | pest or weed control at 1 ppm [3] | pest or weed control at 100 ppm [4, 7]

CN(C(=O)c1ccccc1)c1cccc(C(=O)Nc2c(Cl)cc(C(F)(C(F)(F)F)C(F)(F)F)cc2C(F)(F)F)c1F [7-1417]
≥ 70%: pest or weed control at 100 ppm [1] | pest or weed control at 1 ppm [2] | pest or weed control at 1 ppm [3] | pest or weed control at 100 ppm [4, 7]

O=C(Nc1cccc(C(=O)Nc2c(I)cc(C(F)(C(F)(F)F)C(F)(F)C(F)(F)F)cc2C(F)(F)F)c1F)c1ccccc1 (stereo not shown) [6-1808]
≥ 70%: pest or weed control at 100 ppm [1] | pest or weed control at 1 ppm [2] | pest or weed control at 1 ppm [5] | pest or weed control at 1 ppm [3] | pest or weed control at 100 ppm [4, 7]

CN(C(=O)c1ccc(C#N)cc1)c1cccc(C(=O)Nc2c(I)cc(C(F)(C(F)(F)F)C(F)(F)F)cc2C(F)(F)F)c1F [7-1751]
≥ 70%: pest or weed control at 1 ppm [2] | pest or weed control at 1 ppm [5] | pest or weed control at 1 ppm [3] | pest or weed control at 100 ppm [4, 7]

CN(C(=O)c1cccc(C#N)c1)c1cccc(C(=O)Nc2c(Br)cc(C(F)(C(F)(F)F)C(F)(F)C(F)(F)F)cc2Br)c1F (stereo not shown) [7-1202]
≥ 70%: pest or weed control at 1 ppm [2] | pest or weed control at 1 ppm [3] | pest or weed control at 1 ppm [6] | pest or weed control at 100 ppm [4, 7]

CN(C(=O)c1c(F)cccc1F)c1cccc(C(=O)Nc2c(I)cc(C(F)(C(F)(F)F)C(F)(F)C(F)(F)F)cc2I)c1F (stereo not shown) [7-1360]
≥ 70%: pest or weed control at 100 ppm [1] | pest or weed control at 1 ppm [2] | pest or weed control at 1 ppm [3] | pest or weed control at 100 ppm [4, 7]

O=C(Nc1cccc(C(=O)Nc2c(Br)cc(C(F)(C(F)(F)F)C(F)(F)C(F)(F)F)cc2C(F)(F)F)c1F)c1cccnc1Cl (stereo not shown) [6-1688]
≥ 70%: pest or weed control at 1 ppm [2] | pest or weed control at 1 ppm [3] | pest or weed control at 1 ppm [6] | pest or weed control at 100 ppm [4, 7]

CN(C(=O)c1cccc(F)c1)c1cccc(C(=O)N(C)c2c(I)cc(C(F)(C(F)(F)F)C(F)(F)F)cc2C(F)(F)F)c1F [9-2322]
≥ 70%: pest or weed control at 100 ppm [1] | pest or weed control at 1 ppm [2] | pest or weed control at 1 ppm [3] | pest or weed control at 100 ppm [4, 7]

CN(C(=O)c1ccccc1)c1nc(C(=O)Nc2c(Br)cc(C(F)(C(F)(F)F)C(F)(F)F)cc2C(F)(F)F)cs1 [27-627]
≥ 70%: pest or weed control at 100 ppm [1] | pest or weed control at 10 ppm [2] | pest or weed control at 1 ppm [3]

CN(C(=O)c1cccc(C#N)c1)c1cccc(C(=O)Nc2c(I)cc(C(F)(C(F)(F)F)C(F)(F)C(F)(F)F)cc2C(F)(F)F)c1F (stereo not shown) [7-1828]
≥ 70%: pest or weed control at 100 ppm [1] | pest or weed control at 1 ppm [2] | pest or weed control at 1 ppm [3] | pest or weed control at 100 ppm [4, 7]

CN(C(=O)c1ccccc1)c1cccc(C(=O)Nc2c(Br)cc(C(F)(C(F)(F)F)C(F)(F)F)cc2C(F)(F)F)n1 [17-1103, N-(2-bromo-4-(perfluoropropan-2-yl)-6-(trifluoromethyl)phenyl)-6-(N-methylbenzamide)picolinamide]
≥ 70%: pest or weed control at 100 ppm [1] | pest or weed control at 10 ppm [2] | pest or weed control at 10 ppm [3]

O=C(Nc1c(I)cc(C(F)(C(F)(F)F)C(F)(F)F)cc1C(F)(F)F)c1cccc(NC(=O)c2cc(F)c(F)cc2Cl)c1 [6-450]
≥ 70%: pest or weed control at 100 ppm [1] | pest or weed control at 1 ppm [2] | pest or weed control at 1 ppm [3]

O=C(Nc1cccc(C(=O)Nc2c(I)cc(C(F)(C(F)(F)F)C(F)(F)F)cc2I)c1F)c1cccc(F)c1 [6-1262]
≥ 70%: pest or weed control at 1 ppm [2] | pest or weed control at 1 ppm [5] | pest or weed control at 1 ppm [3] | pest or weed control at 1 ppm [6] | pest or weed control at 100 ppm [4, 7]

N#Cc1cccc(C(=O)Nc2cccc(C(=O)Nc3c(Br)cc(C(F)(C(F)(F)F)C(F)(F)C(F)(F)F)cc3Br)c2F)c1 (stereo not shown) [6-1202]
≥ 70%: pest or weed control at 1 ppm [2] | pest or weed control at 1 ppm [3] | pest or weed control at 1 ppm [6] | pest or weed control at 100 ppm [4, 7]

O=C(Nc1c(I)cc(C(F)(C(F)(F)F)C(F)(F)F)cc1C(F)(F)F)c1cccc(NC(=O)c2ccc(Cl)cc2Br)c1 [6-452]
≥ 70%: pest or weed control at 100 ppm [1] | pest or weed control at 10 ppm [2] | pest or weed control at 1 ppm [3]

N#Cc1ccc(C(=O)Nc2c(Br)cc(C(F)(C(F)(F)F)C(F)(F)F)cc2C(F)(F)F)c(F)c1NC(=O)c1ccc(Cl)nc1 [1-1968, N-(3-(2-bromo-4-(perfluoropropan-2-yl)-6-(trifluoromethyl)phenylcarbamoyl)-6-cyano-2-fluorophenyl)-6-chloronicotinamide]
≥ 70%: pest or weed control at 100 ppm [1] | pest or weed control at 1 ppm [2] | pest or weed control at 10 ppm [3]
